From the OPERA property sets (Mansouri et al. 2018)

First: O=C(Nc1ccc(Cl)cc1[N+](=O)[O-])c1ccccc1O
Second: O=C(Nc1ccc(Cl)cc1Cl)c1ccccc1O
The logP of the first is lower: 4.09 for the first, 5.49 for the second.

Compared with `O=C(Nc1ccc(Cl)cc1)c1cc(Cl)cc(Cl)c1O`, `O=C(Nc1ccc(F)cc1)c1cc(Cl)cc(Cl)c1O` is lower in logP: 5.15 for the first, 4.76 for the second.

Compared with `Cc1cc(Cl)ccc1NC(=O)c1cc(F)ccc1O`, `Cc1cc(Br)ccc1NC(=O)c1cc(F)ccc1O` is higher in logP: 4.89 for the first, 5.15 for the second.

Going from `Cc1ccccc1NC(=O)c1cc(Cl)ccc1O` to `Cc1cc(Cl)ccc1NC(=O)c1ccccc1O`, the logP rises from 4.21 to 5.18.

Compared with `O=C(Nc1ccc(Cl)cc1[N+](=O)[O-])c1cc(Cl)cc(Cl)c1O`, `Cc1cc([N+](=O)[O-])ccc1NC(=O)c1cc(Cl)cc(Cl)c1O` is lower in logP: 5.08 for the first, 4.51 for the second.

Going from `O=C(Nc1ccccc1)c1cc(Cl)ccc1O` to `O=C(Nc1ccccc1)c1cc([N+](=O)[O-])ccc1O`, the logP falls from 4.05 to 3.66.

`O=C(Nc1ccc(Cl)cc1)c1ccccc1O` and `O=C(Nc1ccc(Br)cc1)c1ccccc1O` are within 0.2 log units of each other in logP: 4.5 for the first, 4.51 for the second.

First: O=C(Nc1ccc(Cl)cc1)c1cc(Br)ccc1O
Second: O=C(Nc1ccccc1)c1cc(Cl)cc(Cl)c1O
The logP of the first is higher: 5.02 for the first, 4.01 for the second.

`O=C(Nc1ccc(Cl)cc1[N+](=O)[O-])c1cc(Br)cc(Br)c1O` and `O=C(Nc1ccc(F)cc1F)c1cc(Br)cc(Br)c1O` are within 0.2 log units of each other in logP: 5.05 for the first, 4.99 for the second.

Compared with `O=C(Nc1ccccc1Cl)c1ccccc1O`, `O=C(Nc1ccccc1[N+](=O)[O-])c1ccccc1O` is lower in logP: 4.35 for the first, 2.87 for the second.

With `O=C(Nc1ccc(F)cc1F)c1cc(Cl)cc(Cl)c1O` the logP was 4.55.
